Source: PubChem BioAssay (NCI)
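Assay format: 96-well plates, 48-hour exposure. TGI is the concentration that stops growth completely.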 Where a SMILES comes first, the peptide text is derived from it. The star is where a group is joined. Pentanoyl = CCCCC(=O)*; Boc = CC(C)(C)OC(=O)*

Columns and labels:
Assay in all cases: NCI tumour cell line growth inhibition, 48 h
SK-MEL-5 melanoma = test system: SK-MEL-5 melanoma
UACC-62 melanoma = test system: UACC-62 melanoma
BT-549 breast = test system: BT-549 breast
NCI-H226 lung = test system: NCI-H226 lung
T-47D breast = test system: T-47D breast
SF-539 CNS = test system: SF-539 CNS
PC-3 prostate = test system: PC-3 prostate
SR leukemia = test system: SR leukemia
SF-268 CNS = test system: SF-268 CNS
MOLT-4 leukemia = test system: MOLT-4 leukemia
OVCAR-5 ovarian = test system: OVCAR-5 ovarian
MALME-3M melanoma = test system: MALME-3M melanoma
M14 melanoma = test system: M14 melanoma
HS 578T breast = test system: HS 578T breast
HCT-116 colon = test system: HCT-116 colon
MDA-MB-435 = test system: MDA-MB-435
OVCAR-3 ovarian = test system: OVCAR-3 ovarian
K-562 leukemia = test system: K-562 leukemia
TK-10 renal = test system: TK-10 renal
SK-MEL-2 melanoma = test system: SK-MEL-2 melanoma

Structure (SMILES)	TGI (SK-MEL-5 melanoma)	TGI (UACC-62 melanoma)	TGI (BT-549 breast)	TGI (NCI-H226 lung)	TGI (T-47D breast)	TGI (SF-539 CNS)	TGI (PC-3 prostate)	TGI (SR leukemia)	TGI (SF-268 CNS)	TGI (MOLT-4 leukemia)	TGI (OVCAR-5 ovarian)	TGI (MALME-3M melanoma)	TGI (M14 melanoma)	TGI (HS 578T breast)	TGI (HCT-116 colon)	TGI (MDA-MB-435)	TGI (OVCAR-3 ovarian)	TGI (K-562 leukemia)	TGI (TK-10 renal)	TGI (SK-MEL-2 melanoma)
CCn1c(-c2ccc(F)cc2)nc2c1C(=O)c1ccccc1C2=O	> 100 µM	> 100 µM	> 100 µM	> 100 µM	> 100 µM	> 100 µM	> 100 µM	> 100 µM	> 100 µM	> 100 µM	> 100 µM	> 100 µM	> 100 µM	> 100 µM	> 100 µM	> 100 µM	> 100 µM	> 100 µM	> 100 µM	–
COC(=O)C1C(OC(=O)C(Cl)(c2ccccc2)c2ccccc2)CC2CCC1N2C (centres undefined)	> 100 µM	> 100 µM	> 100 µM	> 100 µM	> 100 µM	> 100 µM	> 100 µM	> 100 µM	> 100 µM	> 100 µM	> 100 µM	> 100 µM	> 100 µM	–	> 100 µM	> 100 µM	> 100 µM	> 100 µM	> 100 µM	–
CC(=O)OC[C@@H]1[C@H]2CC[C@]3(C)[C@@H](OC(C)=O)CC[C@H]3[C@@H]2CC[C@H]1C1(C)SCCS1	> 25 µM	–	> 25 µM	> 25 µM	> 25 µM	> 25 µM	> 25 µM	> 25 µM	> 25 µM	> 25 µM	> 25 µM	> 25 µM	> 25 µM	> 25 µM	> 25 µM	> 25 µM	> 25 µM	> 25 µM	> 25 µM	–
O=c1oc2ccccc2c(O)c1C1c2c(c3ccccc3oc2=O)Oc2c1c(=O)oc1ccccc21	52.1 µM	47.5 µM	67.5 µM	64 µM	> 100 µM	–	> 100 µM	–	94 µM	> 100 µM	–	> 100 µM	–	> 100 µM	> 100 µM	60 µM	> 100 µM	> 100 µM	> 100 µM	> 100 µM
O=C1C(C(c2ccccc2)N2CCOCC2)=C(O)C(c2ccccc2)N1c1ccccc1 (centres undefined)	> 10 µM	> 10 µM	> 10 µM	> 10 µM	> 10 µM	> 10 µM	> 10 µM	–	> 10 µM	> 10 µM	> 10 µM	> 10 µM	> 10 µM	> 10 µM	> 10 µM	> 10 µM	> 10 µM	> 10 µM	> 10 µM	> 10 µM
O=[As](O)(O)c1ccc(N=Nc2ccc([As](=O)(O)O)cc2)cc1	> 100 µM	> 100 µM	> 100 µM	> 100 µM	> 100 µM	–	> 100 µM	> 100 µM	> 100 µM	> 100 µM	> 100 µM	> 100 µM	> 100 µM	> 100 µM	> 100 µM	> 100 µM	> 100 µM	> 100 µM	> 100 µM	> 100 µM
N#Cc1c(NCCc2ccc(F)cc2)c2ccccc2n2c1nc1ccccc12	–	32.8 µM	72.6 µM	55.4 µM	95.6 µM	> 100 µM	82.7 µM	> 100 µM	96.5 µM	> 100 µM	> 100 µM	–	> 100 µM	32 µM	> 100 µM	> 100 µM	66.4 µM	> 100 µM	60.8 µM	> 100 µM
NCCCCN(CCCN)C(=O)c1ccccc1	> 100 µM	> 100 µM	> 100 µM	> 100 µM	> 100 µM	> 100 µM	> 100 µM	–	> 100 µM	> 100 µM	> 100 µM	–	> 100 µM	> 100 µM	> 100 µM	> 100 µM	> 100 µM	> 100 µM	> 100 µM	> 100 µM
CN1C(=O)N/C(=C\c2ccc(S(=O)(=O)N/N=C\C(O)C(O)C(O)CO)cc2)C1=O (centres undefined)	> 100 µM	> 100 µM	> 100 µM	–	> 100 µM	–	> 100 µM	> 100 µM	> 100 µM	> 100 µM	> 100 µM	> 100 µM	> 100 µM	> 100 µM	> 100 µM	> 100 µM	> 100 µM	> 100 µM	> 100 µM	> 100 µM
Cc1n[nH]c(=O)n1/N=C/c1cccs1	–	> 100 µM	> 100 µM	> 100 µM	> 100 µM	> 100 µM	> 100 µM	–	> 100 µM	–	> 100 µM	> 100 µM	> 100 µM	> 100 µM	> 100 µM	> 100 µM	> 100 µM	> 100 µM	–	> 100 µM
COc1ccc(OC)c(C23CCCC(C2)N(C)CC3)c1 (centres undefined)	–	46 µM	> 100 µM	–	> 100 µM	–	41.2 µM	44.7 µM	> 100 µM	> 100 µM	> 100 µM	–	34.1 µM	> 100 µM	41.3 µM	37.9 µM	46.7 µM	43 µM	> 100 µM	53 µM
CCC(=O)N1NC(=O)C(CC)(CC)C1=O	> 100 µM	> 100 µM	> 100 µM	> 100 µM	> 100 µM	–	> 100 µM	> 100 µM	> 100 µM	> 100 µM	> 100 µM	–	> 100 µM	> 100 µM	> 100 µM	> 100 µM	> 100 µM	> 100 µM	> 100 µM	> 100 µM
c1ccc(C2SCc3nc4cc5ccccc5cc4n32)cc1 (centres undefined)	–	> 100 µM	> 100 µM	> 100 µM	> 100 µM	> 100 µM	> 100 µM	> 100 µM	> 100 µM	> 100 µM	> 100 µM	> 100 µM	> 100 µM	> 100 µM	> 100 µM	> 100 µM	> 100 µM	> 100 µM	> 100 µM	> 100 µM
Cc1nc2ccccc2c(=O)n1NC(=O)c1ccc([N+](=O)[O-])cc1	> 100 µM	> 100 µM	> 100 µM	> 100 µM	> 100 µM	> 100 µM	> 100 µM	> 100 µM	> 100 µM	> 100 µM	> 100 µM	> 100 µM	> 100 µM	> 100 µM	> 100 µM	> 100 µM	> 100 µM	> 100 µM	> 100 µM	–
CC(=O)Nc1sc([N+](=O)[O-])cc1S(=O)(=O)c1ccc(Cl)cc1	1.95 µM	22.4 µM	> 24.8 µM	21.9 µM	12.2 µM	10.2 µM	10.6 µM	–	> 100 µM	> 50.2 µM	> 100 µM	15.3 µM	9.79 µM	17.2 µM	19.8 µM	> 53.3 µM	16.1 µM	> 100 µM	> 100 µM	8.54 µM
CCOP(=O)(OCC)C(N)Cc1ccc(OC)c(OC)c1 (centres undefined)	> 100 µM	> 100 µM	> 100 µM	> 100 µM	> 100 µM	> 100 µM	> 100 µM	> 100 µM	> 100 µM	> 100 µM	> 100 µM	> 100 µM	> 100 µM	–	> 100 µM	> 100 µM	> 100 µM	> 100 µM	> 100 µM	> 100 µM
Cc1cnc(-c2c[nH]c3ccccc23)nc1-c1c[nH]c2ccccc12	20.5 µM	17.4 µM	67.7 µM	–	9.15 µM	30.7 µM	14.2 µM	33.9 µM	35.6 µM	28.4 µM	20.9 µM	–	16.4 µM	> 100 µM	16.4 µM	19.8 µM	21.7 µM	26 µM	18.1 µM	20.6 µM
COc1ccc2c(c1)c1c(n2CCN(C)C)-c2cccc(OC)c2CC1	35 µM	34.6 µM	40.5 µM	17.1 µM	27.7 µM	–	24.2 µM	–	38.9 µM	26.8 µM	29.8 µM	–	24.9 µM	33.5 µM	50.3 µM	28 µM	30.9 µM	16.4 µM	41.5 µM	30.2 µM
N#Cc1nc(COCc2ccccc2)oc1N	–	> 100 µM	> 100 µM	> 100 µM	> 100 µM	> 100 µM	> 100 µM	> 100 µM	> 100 µM	> 100 µM	> 100 µM	> 100 µM	> 100 µM	> 100 µM	> 100 µM	> 100 µM	> 100 µM	> 100 µM	> 100 µM	> 100 µM
O=C1C(Cl)=C(N2C(=O)CCCC2=O)C(=O)c2ccccc21	30.2 µM	37.4 µM	36.2 µM	> 100 µM	95.7 µM	38 µM	41.7 µM	57.1 µM	> 100 µM	55.6 µM	38.1 µM	–	37.5 µM	> 100 µM	32 µM	44.9 µM	> 100 µM	6.54 µM	31.3 µM	49 µM
O=C1c2ccccc2-c2c1c(-c1ccc([N+](=O)[O-])cc1)nc1ccc3ccccc3c21	–	> 100 µM	> 100 µM	> 100 µM	> 100 µM	> 100 µM	> 100 µM	–	> 100 µM	> 100 µM	> 100 µM	> 100 µM	> 100 µM	> 100 µM	> 100 µM	> 100 µM	> 100 µM	> 100 µM	–	> 100 µM
O1C2C1C1OC1C1OC1C1OC21 (centres undefined)	> 100 µM	> 100 µM	> 100 µM	> 100 µM	> 100 µM	–	> 100 µM	> 100 µM	> 100 µM	> 100 µM	> 100 µM	> 100 µM	> 100 µM	> 100 µM	> 100 µM	> 100 µM	–	> 100 µM	> 100 µM	> 100 µM
CCCCC(=O)Oc1ccc(CC(NC(=O)OC(C)(C)C)C(=O)NC(C)C(=O)NC(Cc2ccccc2)C(=O)NCC(N)=O)cc1 (centres undefined) (Boc-Y(Pentanoyl)AFG-NH2; configuration not given here)	> 100 µM	45.5 µM	55.7 µM	> 100 µM	79 µM	> 100 µM	> 100 µM	–	> 100 µM	54.2 µM	52 µM	> 100 µM	> 100 µM	> 100 µM	47.1 µM	45.1 µM	39.2 µM	> 100 µM	> 100 µM	41.1 µM
COC(=O)[C@H]1C[C@H]1NC(=O)C(CC(=O)OCc1ccccc1)NC(=O)OCc1ccccc1 (some centres undefined)	55.9 µM	–	55.9 µM	> 100 µM	98.4 µM	> 100 µM	> 100 µM	> 100 µM	> 100 µM	> 100 µM	> 100 µM	–	52.1 µM	> 100 µM	> 100 µM	69.8 µM	–	> 100 µM	> 100 µM	56.9 µM
O=C(O)c1ccc([N+]2=Cn3c(nc4ccccc43)C2)cc1	> 100 µM	> 100 µM	> 100 µM	> 100 µM	> 100 µM	–	> 100 µM	–	> 100 µM	–	> 100 µM	3.05 µM	> 100 µM	> 100 µM	> 100 µM	> 100 µM	> 100 µM	> 100 µM	> 100 µM	> 100 µM
COC(=O)[C@]12CSC[C@H]1C[C@H](c1ccccc1OC)N2	> 100 µM	> 100 µM	> 100 µM	> 100 µM	> 100 µM	> 100 µM	> 100 µM	> 100 µM	> 100 µM	> 100 µM	> 100 µM	> 100 µM	> 100 µM	–	> 100 µM	> 100 µM	> 100 µM	> 100 µM	> 100 µM	> 100 µM
